{"source": "patent US9127038B2", "about": "“Kisspeptide-pentasaccharide conjugates” (Merck Sharp & Dohme Corp., priority 2011, dated 2015)", "target": "T1, human KISS-receptor (Homo sapiens, UniProt Q969F8)", "T1 construct": "expressed in transfected cells; host or cells: CHO-k1 cells that also express mitochondrially targeted aequorin, Gα16 and an NFAT-luciferase reporter", "T1 sequence (Q969F8 whole entry)": "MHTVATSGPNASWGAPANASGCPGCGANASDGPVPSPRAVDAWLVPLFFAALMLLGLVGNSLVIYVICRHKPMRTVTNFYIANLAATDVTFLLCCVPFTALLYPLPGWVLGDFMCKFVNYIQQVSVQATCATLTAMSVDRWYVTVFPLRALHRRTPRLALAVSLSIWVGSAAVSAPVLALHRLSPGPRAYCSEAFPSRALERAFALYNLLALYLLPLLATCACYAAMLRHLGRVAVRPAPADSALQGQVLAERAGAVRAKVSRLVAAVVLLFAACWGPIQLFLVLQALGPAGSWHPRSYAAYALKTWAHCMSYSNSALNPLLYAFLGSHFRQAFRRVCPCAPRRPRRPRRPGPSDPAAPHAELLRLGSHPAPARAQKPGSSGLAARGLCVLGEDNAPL", "assay": "NFAT-regulated luciferase reporter gene assay in CHO-k1 cells, agonist activity", "type": "cell-based", "key": {"[1]": {"details": "pEC50 serum, presence of 20% human serum"}, "[2]": {"details": "absence of human serum, read-out: pEC50 (converted)"}, "[3]": {"details": "presence of 20% human serum, read-out: pEC50 serum (converted)"}}, "note": "Where two headings read alike, the source gives them in different places.", "data": [{"smiles": "CNC(=N)NCCC[C@H](NC(=O)[C@H](CC(C)C)NC(=O)NNC(=O)[C@H](Cc1ccccc1)NC(=O)[C@@H](NC(=O)[C@H](CC(N)=O)NC(=O)[C@H](Cc1c[nH]c2ccccc12)NC(=O)[C@H](CC(N)=O)NC(=O)[C@@H](Cc1ccc(O)cc1)NC(=O)CSCCC(=O)NCCOCCOCCOCCO[C@H]1[C@H](OC)[C@@H](OC)[C@@H](O[C@H]2[C@H](OC)[C@@H](OC)[C@H](O[C@H]3[C@H](OS(=O)(=O)O)[C@@H](OS(=O)(=O)O)[C@@H](O[C@H]4[C@H](OC)[C@@H](OC)[C@H](O[C@H]5[C@H](OS(=O)(=O)O)[C@@H](OS(=O)(=O)O)[C@@H](OC)O[C@@H]5COS(=O)(=O)O)O[C@H]4C(=O)O)O[C@@H]3COS(=O)(=O)O)O[C@@H]2C(=O)O)O[C@@H]1COS(=O)(=O)O)[C@@H](C)O)C(=O)N[C@@H](Cc1ccccc1)C(N)=O", "note": "[Conjugate C2]", "values": [{"measurement": "EC50", "setting": "pEC50, absence of human serum", "value": 0.0776, "unit": "nM"}, {"measurement": "EC50", "setting": "[1]", "value": 9.12, "unit": "nM"}]}, {"smiles": "CNC(=N)NCCC[C@H](NC(=O)[C@H](CC(C)C)NC(=O)NNC(=O)[C@H](Cc1ccccc1)NC(=O)[C@@H](NC(=O)[C@H](CC(N)=O)NC(=O)[C@H](Cc1c[nH]c2ccccc12)NC(=O)[C@H](CC(N)=O)NC(=O)[C@@H](Cc1ccc(O)cc1)Nc1c(NCCOCCOCCOCCOCC(=O)NCCOCCOCCOCCO[C@H]2[C@H](OC)[C@@H](OC)[C@@H](O[C@H]3[C@H](OC)[C@@H](OC)[C@H](O[C@H]4[C@H](OS(=O)(=O)O)[C@@H](OS(=O)(=O)O)[C@@H](O[C@H]5[C@H](OC)[C@@H](OC)[C@H](O[C@H]6[C@H](OS(=O)(=O)O)[C@@H](OS(=O)(=O)O)[C@@H](OC)O[C@@H]6COS(=O)(=O)O)O[C@H]5C(=O)O)O[C@@H]4COS(=O)(=O)O)O[C@@H]3C(=O)O)O[C@@H]2COS(=O)(=O)O)c(=O)c1=O)[C@@H](C)O)C(=O)N[C@@H](Cc1ccccc1)C(N)=O", "note": "[Conjugate C3]", "values": [{"measurement": "EC50", "setting": "[2]", "value": 0.0776, "unit": "nM"}, {"measurement": "EC50", "setting": "[3]", "value": 6.31, "unit": "nM"}]}, {"smiles": "CNC(=N)NCCC[C@H](NC(=O)[C@H](CC(C)C)NC(=O)NNC(=O)[C@H](Cc1ccccc1)NC(=O)[C@@H](NC(=O)[C@H](CC(N)=O)NC(=O)[C@H](Cc1c[nH]c2ccccc12)NC(=O)[C@H](CC(N)=O)NC(=O)[C@@H](Cc1ccc(O)cc1)NC(=O)CCCCn1cc(CCC(=O)NCCOCCOCCOCCOCC(=O)NCCOCCOCCOCCO[C@H]2[C@H](OC)[C@@H](OC)[C@@H](O[C@H]3[C@H](OC)[C@@H](OC)[C@H](O[C@H]4[C@H](OS(=O)(=O)O)[C@@H](OS(=O)(=O)O)[C@@H](O[C@H]5[C@H](OC)[C@@H](OC)[C@H](O[C@H]6[C@H](OS(=O)(=O)O)[C@@H](OS(=O)(=O)O)[C@@H](OC)O[C@@H]6COS(=O)(=O)O)O[C@H]5C(=O)O)O[C@@H]4COS(=O)(=O)O)O[C@@H]3C(=O)O)O[C@@H]2COS(=O)(=O)O)nn1)[C@@H](C)O)C(=O)N[C@@H](Cc1ccccc1)C(N)=O", "note": "[Conjugate C6]", "values": [{"measurement": "EC50", "setting": "pEC50, absence of human serum", "value": 0.148, "unit": "nM"}, {"measurement": "EC50", "setting": "[1]", "value": 5.62, "unit": "nM"}]}, {"smiles": "CNC(=N)NCCC[C@H](NC(=O)[C@H](CC(C)C)NC(=O)NNC(=O)[C@H](Cc1ccccc1)NC(=O)[C@@H](NC(=O)[C@H](CC(N)=O)NC(=O)[C@H](Cc1c[nH]c2ccccc12)NC(=O)[C@H](CC(N)=O)NC(=O)[C@H](Cc1ccc(O)cc1)NC(=O)COCCOCCOCCOCCn1cc(CCC(=O)NCCOCCOCCOCCO[C@H]2[C@H](OC)[C@@H](OC)[C@@H](O[C@H]3[C@H](OC)[C@@H](OC)[C@H](O[C@H]4[C@H](OS(=O)(=O)O)[C@@H](OS(=O)(=O)O)[C@@H](O[C@H]5[C@H](OC)[C@@H](OC)[C@H](O[C@H]6[C@H](OS(=O)(=O)O)[C@@H](OS(=O)(=O)O)[C@@H](OC)O[C@@H]6COS(=O)(=O)O)O[C@H]5C(=O)O)O[C@@H]4COS(=O)(=O)O)O[C@@H]3C(=O)O)O[C@@H]2COS(=O)(=O)O)nn1)[C@@H](C)O)C(=O)N[C@@H](Cc1ccccc1)C(N)=O", "note": "[Conjugate C23]", "values": [{"measurement": "EC50", "setting": "[2]", "value": 0.209, "unit": "nM"}, {"measurement": "EC50", "setting": "[3]", "value": 2.45, "unit": "nM"}]}, {"smiles": "CNC(=N)NCCC[C@H](NC(=O)[C@H](CC(C)C)NC(=O)CNC(=O)[C@H](Cc1ccccc1)NC(=O)[C@@H](NC(=O)[C@H](CC(N)=O)NC(=O)[C@H](CCCCNC(=O)CCOCCOCCOCCOCCn1cc(CCC(=O)NCCOCCOCCOCCO[C@H]2[C@H](OC)[C@@H](OC)[C@@H](O[C@H]3[C@H](OC)[C@@H](OC)[C@H](O[C@H]4[C@H](OS(=O)(=O)O)[C@@H](OS(=O)(=O)O)[C@@H](O[C@H]5[C@H](OC)[C@@H](OC)[C@H](O[C@H]6[C@H](OS(=O)(=O)O)[C@@H](OS(=O)(=O)O)[C@@H](OC)O[C@@H]6COS(=O)(=O)O)O[C@H]5C(=O)O)O[C@@H]4COS(=O)(=O)O)O[C@@H]3C(=O)O)O[C@@H]2COS(=O)(=O)O)nn1)NC(=O)[C@H](CC(N)=O)NC(=O)[C@@H](N)Cc1ccc(O)cc1)[C@@H](C)O)C(=O)N[C@@H](Cc1ccccc1)C(N)=O", "note": "[Conjugate C28]", "values": [{"measurement": "EC50", "setting": "pEC50, absence of human serum", "value": 0.141, "unit": "nM"}, {"measurement": "EC50", "setting": "[1]", "value": 4.27, "unit": "nM"}]}, {"smiles": "CNC(=N)NCCC[C@H](NC(=O)[C@H](CC(C)C)NC(=O)CNC(=O)[C@H](Cc1ccccc1)NC(=O)[C@@H](NC(=O)[C@H](CC(N)=O)NC(=O)[C@H](Cc1ccccc1)NC(=O)[C@H](CC(N)=O)NC(=O)[C@H](Cc1ccc(O)cc1)NC(=O)CCCCn1cc(CCC(=O)NCCOCCOCCOCCO[C@H]2[C@H](OC)[C@@H](OC)[C@@H](O[C@H]3[C@H](OC)[C@@H](OC)[C@H](O[C@H]4[C@H](OS(=O)(=O)O)[C@@H](OS(=O)(=O)O)[C@@H](O[C@H]5[C@H](OC)[C@@H](OC)[C@H](O[C@H]6[C@H](OS(=O)(=O)O)[C@@H](OS(=O)(=O)O)[C@@H](OC)O[C@@H]6COS(=O)(=O)O)O[C@H]5C(=O)O)O[C@@H]4COS(=O)(=O)O)O[C@@H]3C(=O)O)O[C@@H]2COS(=O)(=O)O)nn1)[C@@H](C)O)C(=O)N[C@@H](Cc1ccccc1)C(N)=O", "note": "[Conjugate C29]", "values": [{"measurement": "EC50", "setting": "[2]", "value": 0.407, "unit": "nM"}, {"measurement": "EC50", "setting": "[3]", "value": 8.13, "unit": "nM"}]}, {"smiles": "CNC(=N)NCCC[C@H](NC(=O)[C@H](CC(C)C)NC(=O)NNC(=O)[C@H](Cc1ccccc1)NC(=O)[C@@H](NC(=O)[C@H](CC(N)=O)NC(=O)[C@@H]1C[C@@H](O)CN1C(=O)[C@@H](Cc1ccc(O)cc1)NC(=O)CCCCn1cc(CCC(=O)NCCOCCOCCOCCO[C@H]2[C@H](OC)[C@@H](OC)[C@@H](O[C@H]3[C@H](OC)[C@@H](OC)[C@H](O[C@H]4[C@H](OS(=O)(=O)O)[C@@H](OS(=O)(=O)O)[C@@H](O[C@H]5[C@H](OC)[C@@H](OC)[C@H](O[C@H]6[C@H](OC)[C@@H](OS(=O)(=O)O)[C@@H](OC)O[C@@H]6COS(=O)(=O)O)O[C@H]5C(=O)O)O[C@@H]4COS(=O)(=O)O)O[C@@H]3C(=O)O)O[C@@H]2COS(=O)(=O)O)nn1)[C@@H](C)O)C(=O)N[C@@H](Cc1c[nH]c2ccccc12)C(N)=O", "note": "[Conjugate C30]", "values": [{"measurement": "EC50", "setting": "pEC50, absence of human serum", "value": 0.0479, "unit": "nM"}, {"measurement": "EC50", "setting": "[1]", "value": 0.195, "unit": "nM"}]}, {"smiles": "CNC(=N)NCCC[C@H](NC(=O)[C@H](CC(C)C)NC(=O)NNC(=O)[C@H](Cc1ccccc1)NC(=O)[C@@H](NC(=O)[C@H](CC(N)=O)NC(=O)[C@@H]1C[C@@H](O)CN1C(=O)[C@@H](Cc1ccc(O)cc1)NC(=O)CCOCCOCCOCCOCCn1cc(CCC(=O)NCCOCCOCCOCCOCC(=O)NCCOCCOCCOCCO[C@H]2[C@H](OC)[C@@H](OC)[C@@H](O[C@H]3[C@H](OC)[C@@H](OC)[C@H](O[C@H]4[C@H](OS(=O)(=O)O)[C@@H](OS(=O)(=O)O)[C@@H](O[C@H]5[C@H](OC)[C@@H](OC)[C@H](O[C@H]6[C@H](OC)[C@@H](OS(=O)(=O)O)[C@@H](OC)O[C@@H]6COS(=O)(=O)O)O[C@H]5C(=O)O)O[C@@H]4COS(=O)(=O)O)O[C@@H]3C(=O)O)O[C@@H]2COS(=O)(=O)O)nn1)[C@@H](C)O)C(=O)N[C@@H](Cc1c[nH]c2ccccc12)C(N)=O", "note": "[Conjugate C32]", "values": [{"measurement": "EC50", "setting": "[2]", "value": 0.151, "unit": "nM"}, {"measurement": "EC50", "setting": "[3]", "value": 0.355, "unit": "nM"}]}]}
